Literature values in US20090060993A1, “SOLID PHARMACEUTICAL COMPOSITION FOR ENHANCED DELIVERY OF COENZYME Q-10 AND UBIQUINONES” (priority 2007, published 2009).

Conditions: humans

- total absorption: less than 10%
Structure (SMILES): COC1=C(OC)C(=O)C(C/C=C(\C)CC/C=C(\C)CC/C=C(\C)CC/C=C(\C)CC/C=C(\C)CC/C=C(\C)CC/C=C(\C)CC/C=C(\C)CC/C=C(\C)CCC=C(C)C)=C(C)C1=O [coenzyme Q-10, ubidecarenone]
